≈ marks a conversion by molar mass, not a printed value. Entries after “also recorded” stand apart in the source; their conditions may differ. Read-outs that look alike come from different tables or passages of the source.
Key:
MTT cytotoxicity assay = format: cell-based, African green monkey (Cercopithecus aethiops); settings: African green monkey (Cercopithecus aethiops)
Protocol: (§1) To conduct in vitro toxicity, stock solutions of the test compound and reference drugs were prepared with sterile water. […] The test samples were prepared as a 1 mg·ml^−1 stock solution. Further dilutions were prepared on the day of biological assays. All the drug solutions were stored at 4°C for later use. Vero cells (Vero E-6) were obtained from the Center for Traditional Medicine Drugs and Research (CTMDR), KEMRI. Vero cells are kidney cells extracted from an African green monkey (Cercopithecus aethiops). […] Cells were maintained in Minimum Essential Eagle's Medium (MEM) containing 10% fetal bovine serum (FBS), PenStrep, and glutamine. Vero cells were cultured using T-75 culture flasks. The flasks were kept at 37°C in 5% CO2, and the cells were passaged every 2 to 3 days to keep the cells alive. Trypsinization was carried out to detached cells which overlap each other and counted using a hemocytometer (Neubauer).
(§2) Using a 96-microwell plate, a cell density of 20,000 vero cells were seeded and incubated for 24 hours at 37°C under 5% CO2 to allow cells to attach to the surface/base of the plate. […] The plates were incubated for 48 hours at 37°C under 5% CO2 to allow the reaction to occur. After 48 hours, 0.5 mg/ml of 3-(4, 5-dimethylthiazol-2-yl)-2,5-diphenyltetra-zolium bromide (MTT) was added for calorimetric measurement of the ability of a drug to kill the vero cell lines. The plates were incubated at 37°C for 3 hours. 100 μL of 100% DMSO was added to each well and mixed to ensure cell lysis and dissolving of the formazan crystals. Doxorubicin was used as a control drug.
(§3) The amount of formazan measured was directly proportional to the number of viable cells.

acute falciparum malaria = settings: patients, 0 to 250 mg artesunate together with a curative dose of mefloquine; cited from earlier work
[1] = set-up: method as in PMID 23433124; settings: cited from earlier work
P. berghei ANKA = assay: In vivo efficacy, 4-day oral treatment of infected mice; set-up: species or system Plasmodium berghei in female Swiss albino mice; settings: for ED50: P. berghei ANKA sensitive strain in mice, four days of oral treatment; for Average parasitaemia, Day 7 / Average parasitaemia, Day 9 / Average parasitaemia, Day 11: after stopping the treatment with 10 mg/kg; for Number of mice which survived up to 11 days: 5 mice per group
Protocol: Female Swiss albino mice were collected and kept in the animal house of the Center for Biotechnology and Research Development at the Kenya Medical Research Institute (KEMRI), where the animal experiments were carried out. The animals were six weeks old, weighing 20 to 22 g, and they were kept in mice cages and were allowed to access mice pencils (Ungafeed Company Ltd) and water before experimental testing. Plasmodium berghei ANKA strains, sensitive to quinolone and artemisinin-based drugs, were obtained from the Unit of Malaria, Center for Biotechnology and Research and Development, Kenya Medical Research Institute. Parasites were maintained and cryopreserved in a freezer (−80°C). The parasite was subsequently maintained in the laboratory by serial blood passage from mouse to mouse on a weekly basis.
This consisted of in vivo evaluation of hybrid drug against P. berghei ANKA, a rodent parasite which is commonly used in antimalarial studies. Female Swiss albino donor mouse was injected intraperitoneally with 0.2 ml of inoculums of 1 × 10^7 parasitized erythrocytes, and P. berghei ANKA strain was obtained from the donor mouse. Parasitaemia was assessed after 5 days under microscope using the Giemsa staining technique. The donor mouse was sedated using carbon dioxide to collect blood via cardiac puncture in a heparinized tube using a syringe and a needle. Carcasses were pooled in a biohazard container and stored at room temperature while waiting to be incinerated. Afterward, the experimental mice were infected with inoculums of 1 × 10^7 parasitized erythrocytes using an intraperitoneal method. The mice were grouped into five groups consisting of 5 mice per group. […] Blood for making thin blood smear was collected from the tip of the mouse tail. The efficacy of the drug was measured by comparison of blood parasitaemia after the four days of therapy (i.e., on day 5 postinfection). The ones still alive at the end of the experiments were killed by using carbon dioxide gas followed by incineration.
The determination of the dose to be administered was calculated individually according to each mouse weight. In this regard, these formulas were applied: HED (mg/kg) = Animal Dose (mg/kg) ∗ [Animal km/Human km], where HED stands for human equivalent dose and km which is a conversion factor. With km (a constant) = Weight/Body surface area. For mice of 0.02 kg, with a body surface area of 0.007, km = 0.02/0.007 = 3 [15].(3) Dosage mg/kg =Drug concentration mg/ml∗Volume ml/Body weightkg.
From formula (2),(4) Volume ml of drug to be given to each mouse=Body weight kg∗Dosage mg/kg/Drug concentration mg/ml .
The parasitaemia was checked for every 24 hours from the time of infection for 4 days. Thin blood smears were prepared from each mouse tail venous blood. The smears were prepared by the Giemsa staining technique, and the parasitaemia of individual mouse had been checked using a light microscope. The following formula was used to calculate the percentage parasitaemia:(5) The Percentage of parasitaemia=Number of parasitized RBCs/field/Total number of RBCs/field ∗100.
After 4 days, the percentage (%) chemosuppression of each drug was determined using the following formula [17]:(6) Percentage chemosuppression= 100−A−B/A×100, where A is the mean parasitaemia in the negative control group and B is the parasitaemia in the test group. The dose that cured 50% of infected animals had been determined as effective dose (ED50) using a nonlinear regression logistic dose-response model.

[2] = test system: P. falciparum 3D7 strains (CQ sensitive); assay: In vitro drug sensitivity, tritiated hypoxanthine incorporation assay; format: cell-based, Plasmodium falciparum; settings: P. falciparum 3D7, CQ sensitive, [3H]hypoxanthine uptake, 48 hours
Protocol: Further dilutions were prepared on the day of biological assays. All the drug solutions were stored at 4°C for later use.

vero cells (Vero E-6) = assay: MTT cytotoxicity assay; format: cell-based, African green monkey (Cercopithecus aethiops); settings: vero cells
Protocol: as §1, §2, §3

[3] = Acute oral toxicity in mice; settings: mouse, in vivo, 28 days
[4] = Acute oral toxicity in mice; format: in vivo; settings: for Number of dead mice: 3 mice per group, head says after 28 days, text 14 days, listed as sarcosine-aniline hybrid drug; for Mean average of weight after 14 days: initial weights 20 to 22 g
Protocol: In this step, acute toxicity was performed. Three dosages, such as 2000 mg·kg^−1, and 300 mg·kg^−1, and 50 mg/kg were administered orally to mice in three groups, and the fourth group which served as a control received water as a placebo. Each group consisted of 3 mice, and the weight and number of dead mice were monitored and recorded after each 4 days over an interval of 14 days. Clinical or physical signs were also subjected to be recorded during the study period. At the end of the experiment, the mice were killed by using concentrated carbon dioxide gas followed by incineration. The number of dead mice was to be recorded, and a semilog plot of log concentration against percentage (%) response was made.

Solubility observations = format: physicochemical
[5] = set-up: method as in PMID 21189459; settings: 20 mg/kg, oral route, mice; cited from earlier work
vero cells = settings: cited from earlier work
[6] = 10 mg/kg oral, after 4 days of treatment
[7] = Plasmodium berghei, 96 h, read-out: ED50
[8] = Plasmodium falciparum, read-out: IC50

Molecule	Percentage of chemosupression of parasitaemia (P. berghei ANKA; [6])	Average parasitaemia, Day 7 (P. berghei ANKA)	Average parasitaemia, Day 9 (P. berghei ANKA)	Average parasitaemia, Day 11 (P. berghei ANKA)	Number of mice which survived up to 11 days (P. berghei ANKA; dosage 0.625 mg/kg oral)	Number of mice which survived up to 11 days (P. berghei ANKA; dosage 1.25 mg/kg oral)	Number of mice which survived up to 11 days (P. berghei ANKA; dosage 2.5 mg/kg oral)	Number of mice which survived up to 11 days (P. berghei ANKA; dosage 5 mg/kg oral)	Number of mice which survived up to 11 days (P. berghei ANKA; dosage 10 mg/kg oral)	ED50 (P. berghei ANKA)	also measured
C[C@H]1[C@H](OC(=O)CCC(=O)O)O[C@@H]2O[C@@]3(C)CC[C@H]4[C@H](C)CC[C@@H]1[C@@]24OO3 [Artesunate]	100%	0.00%	0.2%	0.67%	2	3	4	3	5		CC50 at 48 h (MTT cytotoxicity assay): 19.7 µg/mL (≈ 51.2 µM); ED50 (acute falciparum malaria): 1.6 mg/kg; ED50 ([1]; intraperitoneal route): < 1 mg/kg; ED50 ([1]; oral route, artesunate with 80 mg/kg as highest dosage): 1.8 mg/kg; Parasites observed under the microscope (P. berghei ANKA; [6]): No parasites were observed; ED50 (P. berghei ANKA; [7]): 2.94 mg/kg; Number of mice which survived up to 11 days (P. berghei ANKA; dosage 10 mg/kg oral, listed as artesunate): all mice; IC50 [2, 8]: 0.00263 ± 0.00038 µg/mL (≈ 0.00684 µM)
CNCC(=O)Nc1ccc(Oc2ccc(Cl)cc2)c(Cl)c1 [Sarcosine-aniline hybrid, 3-Chloro-4(4-chlorophenoxy) Methyglycylanilde]		9.74%	12.98%	15.61%	1	1	1	2	3		Mean difference of CC50 versus artesunate (vero cells (Vero E-6); sarcosine-aniline hybrid VS artesunate, in µg/mL): 30.48; Mean difference of CC50 versus chloroquine (vero cells (Vero E-6); sarcosine-aniline hybrid VS chloroquine): -7.78; Mean difference of CC50 versus doxorubicin (vero cells (Vero E-6); sarcosine-aniline hybrid VS doxorubicin, in µg/mL): 48.21; CC50 at 48 h (MTT cytotoxicity assay; Vero E-6 cells, vero cells, MTT, 48 hours, triplicate, read-out: Mean CC50): 50.2 µg/mL (≈ 154 µM); ED50 (P. berghei ANKA; [7]): 6.49 mg/kg; IC50 [2, 8]: 0.0448 ± 0.0047 µg/mL (≈ 0.138 µM); Number of dead mice [3]: 0; Number of dead mice ([4]; 50 mg/kg oral): No mouse died; Mean average of weight after 14 days ([4]; 50 mg/kg oral): 22.24 g; Number of dead mice ([4]; 300 mg/kg oral): No mouse died; Mean average of weight after 14 days ([4]; 300 mg/kg oral): 21.58 g; Number of dead mice ([4]; 2000 mg/kg oral): No mouse died; Mean average of weight after 14 days ([4]; 2000 mg/kg oral): 21.34 g; Therapeutic index (LD50/ED50) ([4]; LD50 >5000 mg/kg, ED50 6.49 mg/kg): greater than 770.41; LD50 at 14 days ([4]; mouse, in vivo, oral, mice, estimated from no deaths at 2000 mg/kg): > 5000 mg/kg; OECD/OCDE guideline toxicity category ([4]; oral acute toxicity, mice): category 5; Therapeutic index relative to that of artesunate ([4]; versus artesunate therapeutic index of 4 from Xie et al. [31]): 192.6 fold; Solubility in dimethyl sulfoxide (DMSO) (Solubility observations; DMSO): soluble; Solubility in Tween 80 (Solubility observations; Tween 80): slightly soluble; Solubility in water (Solubility observations): very low
CCN(CC)CCCC(C)Nc1ccnc2cc(Cl)ccc12 (stereo not shown) [Chloroquine]	100%	0.00%	0.03%	0.42%	3	3	4	4	5		Chemosupression [5]: 100%; Concentrations not revealing cytotoxicity effects (vero cells): ≤ 50 µg/mL; Concentrations showing major cytotoxicity (vero cells): ≥ 500 µg/mL; Number of mice which survived up to 11 days (P. berghei ANKA; dosage 10 mg/kg oral, listed as chloroquine): all mice
CNCC(=O)O [Sarcosine, N-methyl glycine]					0	1	1	2	1	did not show in vivo activity; also recorded: No activity	ED50 (P. berghei ANKA; listed as sarcosine): not detectable; IC50 [2]: did not show in vitro activity; also recorded: No activity; Solubility in water (Solubility observations): completely soluble
C[C@H]1[C@H](OC(=O)CCC(=O)Nc2ccc(Oc3ccc(Cl)cc3)c(Cl)c2)O[C@@H]2O[C@@]3(C)CC[C@H]4[C@H](C)CC[C@@H]1[C@@]24OO3 [Artesunate-aniline hybrid]					1	3	3	2	3	3.56 mg/kg	
COc1cccc2c1C(=O)c1c(O)c3c(c(O)c1C2=O)C[C@@](O)(C(=O)CO)C[C@@H]3O[C@H]1C[C@H](N)[C@H](O)[C@H](C)O1 [Doxorubicin]											CC50 at 48 h (MTT cytotoxicity assay): 1.96 µg/mL (≈ 3.61 µM)
3-chloro-4-(4-chlorophenoxy) aniline	68%	6.97%	9.03%	11.84%	1	3	3	2	4	3.61 mg/kg	IC50 [2]: 0.02286 ± 0.00126 µg/mL

— paper PMC7171691 (Journal of Tropical Medicine, 2020)
